The data set can be described thus: Henry's Law constant (molality scale); of the first substance listed, at infinite dilution; xn = mol fraction of the nth substance listed. To be noted: Liquid, Chromatography, x1 = 0.

Values joined by “and” are separate entries in the source; they are usually repeats but may differ in a detail not shown here. Identical values can stand only once. Numbers after ± are expanded uncertainties.

Consider 17 compounds from the NIST ThermoML archive (doi:10.1021/je3010535).

Take `Cc1cccc2ccccc12` [1-methylnaphthalene] + O: the “Henry's Law constant” value by setting is: (274.15 K) 3.74 ± 1.1 kPa·kg/mol; (294.65 K) 23.4 kPa·kg/mol and 13.3 kPa·kg/mol; (296.15 K) 27.8 ± 8.3 kPa·kg/mol; (310.15 K) 74 ± 22 kPa·kg/mol; (320.15 K) 87.9 ± 26 kPa·kg/mol; (331.15 K) 153 ± 46 kPa·kg/mol. Also, the “Henry's Law constant” value (333.15 K) turned out to be 150 ± 45 kPa·kg/mol.
Regarding `CC(C)(Cl)Cl` [2,2-dichloropropane] + O, the “Henry's Law constant” value was 423 ± 170 kPa·kg/mol (274.15 K), 3280 ± 1300 kPa·kg/mol (313.15 K) and 36600 ± 15000 kPa·kg/mol (326.15 K).
On to `CCCCOCCO` [2-butoxyethan-1-ol] + O, for which the “Henry's Law constant” value by setting is: (298.15 K) 0.269 ± 0.081 kPa·kg/mol; (311.15 K) 0.904 ± 0.27 kPa·kg/mol; (332.15 K) 4.27 ± 1.3 kPa·kg/mol.
Consider `Cc1ccccc1Cl` [2-chlorotoluene] + O, for which the “Henry's Law constant” value by setting is: (274.15 K) 90.4 ± 36 kPa·kg/mol; (294.65 K) 248 kPa·kg/mol and 316 kPa·kg/mol; (296.15 K) 356 ± 140 kPa·kg/mol; (310.15 K) 503 ± 200 kPa·kg/mol; (313.15 K) 890 ± 360 kPa·kg/mol; (320.15 K) 533 ± 210 kPa·kg/mol. The “Henry's Law constant” value by setting is: (326.15 K) 1280 ± 510 kPa·kg/mol; (331.15 K) 1040 ± 420 kPa·kg/mol.
In the case of `CCCCC(CC)CO` (centres undefined) [2-ethyl-1-hexanol] + O, the “Henry's Law constant” value by setting is: (273.25 K) 0.0797 ± 0.032 kPa·kg/mol; (298.15 K) 1.91 ± 0.76 kPa·kg/mol; (311.15 K) 4.09 ± 1.6 kPa·kg/mol; (332.15 K) 100 ± 40 kPa·kg/mol.
In the case of `COC(C)(C)C` [2-methoxy-2-methylpropane] + O, the “Henry's Law constant” value runs as follows: (274.15 K) 5.5 kPa·kg/mol; (296.15 K) 58 kPa·kg/mol; (310.15 K) 59 kPa·kg/mol; (320.15 K) 368 kPa·kg/mol; (331.15 K) 1650 kPa·kg/mol.
As to `COCCO` [2-methoxyethan-1-ol] + O, the “Henry's Law constant” value by setting is: (298.15 K) 0.223 ± 0.067 kPa·kg/mol; (311.15 K) 0.665 ± 0.2 kPa·kg/mol; (332.15 K) 3.28 ± 0.98 kPa·kg/mol.
Consider `Cc1ccc2ccccc2c1` [2-methylnaphthalene] + O, for which the “Henry's Law constant” value was 4.91 ± 1.5 kPa·kg/mol (274.15 K); 31.4 kPa·kg/mol and 16.6 kPa·kg/mol (294.65 K); 35 ± 10 kPa·kg/mol (296.15 K); 84.4 ± 25 kPa·kg/mol (310.15 K); 106 ± 32 kPa·kg/mol (320.15 K); 169 ± 51 kPa·kg/mol (331.15 K). For the same compound, the “Henry's Law constant” value (333.15 K) is 166 ± 50 kPa·kg/mol.
As for `CC(C)(C)O` [2-methylpropan-2-ol] + O, the “Henry's Law constant” value (273.25 K) is 0.055 ± 0.017 kPa·kg/mol, the “Henry's Law constant” value (298.15 K) is 1.25 ± 0.37 kPa·kg/mol, the “Henry's Law constant” value (311.15 K) came out at 3.19 ± 0.96 kPa·kg/mol and the “Henry's Law constant” value (332.15 K) amounted to 6.96 ± 2.1 kPa·kg/mol.
With `C#CCO` [2-propyn-1-ol] + O, the “Henry's Law constant” value runs as follows: (273.25 K) 0.039 ± 0.012 kPa·kg/mol; (298.15 K) 0.255 ± 0.076 kPa·kg/mol; (311.15 K) 0.754 ± 0.23 kPa·kg/mol; (332.15 K) 3.71 ± 1.1 kPa·kg/mol.
As to `C=CCCl` [3-chloro-1-propene] + O, the “Henry's Law constant” value by setting is: (274.15 K) 255 ± 76 kPa·kg/mol; (313.15 K) 1350 ± 410 kPa·kg/mol; (326.15 K) 3170 ± 950 kPa·kg/mol.
For the compound `Cc1ccc(Cl)cc1` [4-chlorotoluene] + O, the “Henry's Law constant” value (274.15 K) amounted to 85.6 kPa·kg/mol; the “Henry's Law constant” value (296.15 K) was 232 kPa·kg/mol; the “Henry's Law constant” value (310.15 K) came out at 224 kPa·kg/mol; the “Henry's Law constant” value (313.15 K) amounted to 591 kPa·kg/mol; the “Henry's Law constant” value (326.15 K) was 1240 kPa·kg/mol; the “Henry's Law constant” value (331.15 K) is 888 kPa·kg/mol.
As to `CC(=O)CC(C)C` [4-methylpentan-2-one] + O, the “Henry's Law constant” value runs as follows: (274.15 K) 0.834 ± 0.25 kPa·kg/mol; (294.65 K) 8.08 kPa·kg/mol and 8.27 kPa·kg/mol; (296.15 K) 9.34 ± 2.8 kPa·kg/mol; (310.15 K) 37.2 ± 11 kPa·kg/mol; (320.15 K) 72.5 ± 22 kPa·kg/mol; (331.15 K) 164 ± 49 kPa·kg/mol. The “Henry's Law constant” value (333.15 K) stood at 236 ± 71 kPa·kg/mol.
Consider `Cl/C=C/Cl` [(E)-1,2-dichloroethene] + O, for which the “Henry's Law constant” value by setting is: (274.15 K) 311 ± 93 kPa·kg/mol; (294.65 K) 956 kPa·kg/mol and 852 kPa·kg/mol; (296.15 K) 995 ± 300 kPa·kg/mol; (313.15 K) 1820 ± 540 kPa·kg/mol; (326.15 K) 2900 ± 870 kPa·kg/mol.
`Cl/C=C\Cl` [(Z)-1,2-dichloroethene] + O: the “Henry's Law constant” value by setting is: (274.15 K) 131 ± 39 kPa·kg/mol; (294.65 K) 317 kPa·kg/mol and 330 kPa·kg/mol; (296.15 K) 405 ± 120 kPa·kg/mol; (313.15 K) 636 ± 190 kPa·kg/mol; (326.15 K) 1110 ± 330 kPa·kg/mol.
As for `ClCc1ccccc1` [(chloromethyl)benzene] + O, the “Henry's Law constant” value (273.25 K) came to 7.81 ± 2.3 kPa·kg/mol, the “Henry's Law constant” value (298.15 K) was found to be 50.6 ± 15 kPa·kg/mol and the “Henry's Law constant” value (311.15 K) was 139 ± 42 kPa·kg/mol.
As to `CC(C)=O` [acetone] + O, the “Henry's Law constant” value (274.15 K) came to 0.231 ± 0.092 kPa·kg/mol; the “Henry's Law constant” value (294.65 K) was 1.44 kPa·kg/mol and 1.26 kPa·kg/mol; the “Henry's Law constant” value (296.15 K) was 1.13 ± 0.45 kPa·kg/mol; the “Henry's Law constant” value (310.15 K) amounted to 7.55 ± 3 kPa·kg/mol; the “Henry's Law constant” value (320.15 K) came to 11.5 ± 4.6 kPa·kg/mol; the “Henry's Law constant” value (331.15 K) turned out to be 16 ± 6.4 kPa·kg/mol. For the same compound, the “Henry's Law constant” value (333.15 K) stood at 41.1 ± 16 kPa·kg/mol.
